Test [1] deals with KRAS protein containing G12D mutation (Homo sapiens (Human), UniProt P01116, G12D). Put plainly: SOS-catalyzed nucleotide exchange assay (GNE), TR-FRET. The format is biochemical. The conditions noted are these: biotinylated KRAS G12D, SOS and GTP, 60-minute incubation. The procedure: Compounds are added to this complex and then after a 60-minute incubation time the mixture is treated with SOS and unlabeled GTP. Small molecule inhibitors stabilize the Bodipy-GDP complex whereas the untreated protein rapidly exchanges Bodipy-GDP for unlabeled GTP resulting in reduced TR-FRET signal.
KRAS protein containing G12D mutation, sequence (P01116 other isoform, or with tags, fused parts or gaps G12D (already in the parent)): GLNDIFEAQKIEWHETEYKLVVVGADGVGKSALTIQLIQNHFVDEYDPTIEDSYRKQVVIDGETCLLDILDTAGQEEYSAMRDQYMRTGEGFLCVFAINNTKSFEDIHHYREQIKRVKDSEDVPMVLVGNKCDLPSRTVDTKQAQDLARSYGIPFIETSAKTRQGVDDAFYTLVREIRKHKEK
This solution is referred to as biotinylated KRAS G12D stock solution.
On the technique in general: TR-FRET usually uses a lanthanide donor and a delayed reading to cut background.

Test [2] concerns AsPC-1 cells containing homozygous KRAS-G12D activating mutation. Put plainly: Cellular phospho-ERK assay (Examples 1a-106). The format is cell-based. The conditions noted are these: AsPC-1 cells, 2 hours, ratio of p-Erk vs total Erk, read-out: IC50 (nM) pERK (Cell). The text has this:
5% CO? overnight. […] Assay plates were read on a EnVision Multimode Plate Reader (PerkinElmer) and the ratio of p-Erk vs total Erk in each well was used as the final readout.

For test [3], the target named is KRAS G12D / Ras binding domain of C-RAF (Homo sapiens (Human), UniProt P01116, G12D). Put plainly: RAS:RAF-RBD binding assay (cRaf), TR-FRET. The conditions noted are these: biotinylated KRAS G12D, GST-C-RAF RBD.
KRAS G12D / Ras binding domain of C-RAF, sequence (P01116 other isoform, or with tags, fused parts or gaps G12D (already in the parent)): as above
Procedure: Compounds are added to KRAS and then after a 30-minute incubation time the RAF-RBD and detection antibodies are added. Small molecule inhibitors that block the interaction of c-RAF-RBD prevent generation of a TR-FRET signal.
Biotinylated KRAS G12D protein is diluted to 20 nM in assay buffer (20 mM HEPES pH 7.5, 150 mM sodium chloride, 10 mM magnesium chloride, and 0.01% Tween20).
Each test compound (10 mM stock in DMSO) is diluted in DMSO to make a 10-point, 3-fold dilution series in a 384-well low dead volume microplate (Labcyte, catalog #LP-0200).
Each well of the assay plate receives 5 μL of Biotinylated KRAS G12D assay solution and is incubated at room temperature for 30 minutes. Each well then receives 5 μL of 100 nM GST-C-RAF RBD protein and a 1:100 dilution of both anti-GST-d2 (Cisbio catalog #61GSTDLA) and Streptavidin-Tb cryptate (Cisbio catalog #610SATLA) in assay buffer and the plate is mixed and briefly centrifuged followed by a 60 minute incubation at room temperature.
The apparent effect as a function of compound concentration is fit to a four-parameter logistic equation.

SMILES strings stand for the structures. Like-named read-outs stand apart in the source and are kept apart here.

Broadly, the IC50 is the concentration that gives 50% inhibition. Take `CN(C)CC1(COc2nc(N3CC4CCC(CC#N)(C3)N4)c3cc(Cl)c(-c4cc(O)cc5ccccc45)c(F)c3n2)CC1` (stereo not drawn) [Example 36, 2-(3-(6-chloro-2-((1-((dimethylamino)meth-yl)cyclopro-pyl)methoxy)-8-fluoro-7-(3-hydroxy-naphthalen-1-yl)quinazolin-4-yl)-3,8-diazabicyclo[3.2.1]oc-tan-1-yl)acetonitrile]: the IC50 came to 4680 nM in test [1]; 46400 nM in test [2] (Homo sapiens, ASPC1, 2 h); 50000 nM in test [3] (IC50 (nM) (cRaf)).
On to `CC[C@H]1N[C@H]2CC[C@@H]1N(c1nc(OCC3(CN(C)C)CC3)nc3c(F)c(-c4cc(O)cc5ccccc45)c(Cl)cc13)C2` [Example 39, 4-(6-chloro-2-((1-((dimethylamino)methyl)cyclopropyl)methoxy)-4-((1S,4S,6R)-6-ethyl-2,5-diazabicyclo[2.2.2]octan-2-yl)-8-fluoroquinazolin-7-yl)naphthalen-2-ol], for which the IC50 in test [1] turned out to be 46.7 nM; in test [2] (Homo sapiens, ASPC1, 2 h), 3310 nM; in test [3] (IC50 (nM) (cRaf)), 4670 nM.
The corresponding values for `CN(C)CC1(COc2nc(N3CC4CCC(C3)N4)c3cc(Cl)c(-c4cc(O)ccc4[Si](C)(C)C)c(F)c3n2)CC1` [Example 45, 3-(4-(3,8-diazabicyclo[3.2.1]octan-3-yl)-6-chloro-2-((1-((dimethylamino)methyl)cyclopropyl)methoxy)-8-fluoroquinazolin-7-yl)-4-(trimethylsilyl)phenol] are 376 nM, 5470 nM and 31600 nM.
As for `Cc1cc(O)cc(-c2c(F)cc3c(N4CC5CCC(C4)N5)nc(OCC4(CN5CCOCC5)CC4)nc3c2F)c1SC(F)(F)F` [Example 49, 3-(4-(3,8-diazabicyclo[3.2.1]octan-3-yl)-6,8-difluoro-2-((1-(morpholinomethyl)cyclopropyl)methoxy)quinazolin-7-yl)-5-methyl-4-((trifluoromethyl)thio)phenol], the IC50 stood at 184 nM in test [1]; 4990 nM in test [2] (Homo sapiens, ASPC1, 2 h); 24700 nM in test [3] (IC50 (nM) (cRaf)).
Turning to `Nc1ccc2c(F)ccc(-c3c(Cl)cc4c(N5CC6CCC(C5)N6)nc(OCC5(CN6CCOCC6)CC5)nc4c3F)c2n1` [Example 52, 8-(4-(3,8-diazabicyclo[3.2.1]octan-3-yl)-6-chloro-8-fluoro-2-((1-(morpholinomethyl)cyclopropyl)methoxy)quinazolin-7-yl)-5-fluoroquinolin-2-amine], the IC50 in test [1] is 132 nM; in test [2] (Homo sapiens, ASPC1, 2 h), 2560 nM; in test [3] (IC50 (nM) (cRaf)), 3820 nM.
On the same counts, the results for `CN(C)CC1(COc2nc(N3CC4CCC(C3)N4)c3cc(Cl)c(-c4cc(O)c(F)c5ccccc45)c(F)c3n2)CC1` [Example 57, 4-(4-(3,8-diazabicyclo[3.2.1]octan-3-yl)-6-chloro-2-((1-((dimethylamino)methyl)cyclopropyl)methoxy)-8-fluoroquinazolin-7-yl)-1-fluoronaphthalen-2-ol] are 404 nM, 6850 nM and 31500 nM.
With `Cc1c(Cl)cc2[nH]ncc2c1-c1c(F)cc2c(N3CC4CCC(C3)N4)nc(OCC3(CN(C)C)CC3)nc2c1F` [Example 58, 1-(1-(((4-(3,8-diazabicyclo[3.2.1]octan-3-yl)-7-(6-chloro-5-methyl-1H-indazol-4-yl)-6,8-difluoroquinazolin-2-yl)oxy)methyl)cyclopropyl)-N,N-dimethylmethanamine], the IC50 in test [1] worked out at 256 nM; in test [2] (Homo sapiens, ASPC1, 2 h), 5900 nM; in test [3] (IC50 (nM) (cRaf)), 45300 nM.
On the same counts, the results for `Nc1nc2c(-c3c(F)cc4c(N5CC6CCC(C5)N6)nc(OCC5(CN6CC[C@@H](F)C6)CC5)nc4c3F)ccc(F)c2s1` [Example 61] are 38.7 nM, 7580 nM and 3350 nM.
Take `Nc1nc2c(-c3c(Cl)cc4c(N5CC6CCC(C5)N6)nc(OCC5(CN6CCOCC6)CC5)nc4c3F)ccc(F)c2s1` [Example 62, 4-(4-(3,8-diazabicyclo[3.2.1]octan-3-yl)-6-chloro-8-fluoro-2-((1-(morpholinomethyl)cyclopropyl)methoxy)quinazolin-7-yl)-7-fluorobenzo[d]thiazol-2-amine]: the IC50 in test [1] is 3.83 nM; in test [2] (Homo sapiens, ASPC1, 2 h) it was 1860 nM; in test [3] (IC50 (nM) (cRaf)), 334 nM.
The corresponding values for `Cc1cc2[nH]ncc2c(-c2c(F)cc3c(N4C[C@H]5CC[C@@H](C4)N5)nc(OCC4(CN(C)C)CC4)nc3c2F)c1Cl` [Example 65, 1-(1-(((4-((1R,5S)-3,8-diazabicyclo[3.2.1]octan-3-yl)-7-(5-chloro-6-methyl-1H-indazol-4-yl)-6,8-difluoroquinazolin-2-yl)oxy)methyl)cyclopropyl)-N,N-dimethylmethanamine] are 272 nM, 2840 nM and 45700 nM.
Turning to `Cc1cc2[nH]ncc2c(-c2c(F)cc3c(N4C[C@H]5CC[C@@](C)(C4)N5)nc(OC[C@@H]4C[C@@H](F)CN4C)nc3c2F)c1C(F)(F)F` [Example 67, 6,8-difluoro-2-(((2S,4R)-4-fluoro-1-methylpyrrolidin-2-yl)methoxy)-7-(6-methyl-5-(trifluoromethyl)-H-indazol-4-yl)-4-((1S,5R)-1-methyl-3,8-diazabicyclo[3.2.1]octan-3-yl)quinazoline], the IC50 in test [1] stood at 173 nM; in test [2] (Homo sapiens, ASPC1, 2 h), 2860 nM; in test [3] (IC50 (nM) (cRaf)), 4040 nM.
Consider `C[C@@]12CC(O)[C@@](C)(CN(c3nc(OC[C@@]45CCCN4C[C@H](F)C5)nc4c(F)c(-c5cc(O)cc6cccc(Cl)c56)c(F)cc34)C1)N2` (stereo partly drawn) [Example 106], for which the IC50 in test [1] came out at 2.09 nM; in test [2], 76.1 nM; in test [3] (read-out: IC50 (nM) (cRaf)) it was 49.4 nM.
`C[C@@]12CC[C@@H](CN(c3nc(OCC4(CN5CC[C@@H](F)C5)CC4)nc4c3CCN(c3cccc5cccc(Br)c35)C4)C1)N2` [compound 94, 7-(8-bromonaphthalen-1-yl)-2-((1-(((R)-3-fluoropyrroli-din-1-yl)methyl)cyclopropyl)methoxy)-4-((1S,5R)-1-methyl-3,8-diazabicyclo[3.2.1]octan-3-yl)-5,6,7,8-tetrahydropyrido[3,4-d]pyrimidine]: the IC50 came to 116 nM in test [1]; 8470 nM in test [2] (Homo sapiens, ASPC1, 2 h); 32900 nM in test [3] (IC50 (nM) (cRaf)).
The corresponding values for `C#Cc1cccc2cc(O)cc(-c3c(F)cc4c(N5C[C@]6(C)CC[C@H]5CN6)nc(OC[C@@]56CCCN5C[C@H](F)C6)nc4c3F)c12` [compound 104, 4-(6,8-difluoro-2-(((2R,7aS)-2-fluorotetrahydro-1H-pyrrolizin-7a(5H)-yl)methoxy)-4-((1S,4S)-4-methyl-2,5-diazabicyclo[2.2.2]octan-2-yl)quinazolin-7-yl)-5-ethynylnaphthalen-2-ol] are 1.05 nM, 11.8 nM and 5.93 nM.

These data come from patent US20240239788A1, “SMALL MOLECULE INHIBITORS OF KRAS G12D MUTANT” (Merck Sharp & Dohme LLC, priority 2021, published 2024).
